# According to patent US20240228499A1, “MASP-2 INHIBITORS AND METHODS OF USE” (Omeros Corporation, priority 2022, published 2024):
# pKi: −log10 of the molar value. Where a name gives a salt, the structure may show the parent alone.
# Columns and labels:
# MASP-2 (CCP1-CCP2-SP) = target: T1, MASP-2 (CCP1-CCP2-SP) (Homo sapiens, UniProt O00187); experiment: Enzymatic assay for MASP-2 inhibitory activity (fluorogenic substrate); format: biochemical; conditions: room temperature, 20 mM Hepes pH 7.4, 20 min
# T1 construct: 15 μL of Enzyme MASP-2 (CCP1-CCP2-SP) in Assay Buffer
# T1 sequence (O00187 287-686 limits assumed): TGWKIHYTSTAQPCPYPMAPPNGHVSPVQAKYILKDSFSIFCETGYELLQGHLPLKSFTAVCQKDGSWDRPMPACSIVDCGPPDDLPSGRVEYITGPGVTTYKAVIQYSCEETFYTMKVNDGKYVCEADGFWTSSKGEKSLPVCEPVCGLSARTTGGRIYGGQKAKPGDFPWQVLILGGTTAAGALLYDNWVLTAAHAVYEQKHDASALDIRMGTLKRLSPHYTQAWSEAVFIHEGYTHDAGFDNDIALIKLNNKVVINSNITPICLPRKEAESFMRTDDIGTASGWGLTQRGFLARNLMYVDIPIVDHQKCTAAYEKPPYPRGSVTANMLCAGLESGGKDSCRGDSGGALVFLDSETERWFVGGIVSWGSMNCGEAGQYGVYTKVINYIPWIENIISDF
# Procedure: The MASP-2 assay utilizes a fluorogenic substrate, based on the cleavage site for its natural substrate C2. The assay was run at room temperature in an assay buffer containing 20 mM HEPES, pH 7.4, 140 mM NaCl and 0.1% Tween 20. Assay parameters were adjusted such that the assay was linear with respect to time, enzyme, and substrate concentrations. Under the optimized assays conditions, IC50 values were equivalent to Ki values, except in the few cases of “tight binding” inhibitors. Cases of “tight binding” or possible “slow binding” inhibitors were handled by the methods described in Copeland R. A. (2013) Evaluation of Enzyme Inhibitors in Drug Discovery. 2nd Ed., John Wiley and Sons, Inc., Chapters 5-7.
# The MASP-2 assay protocol was carried out as follows. Test compounds were serially diluted in DMSO and then 100 nL of each dilution was transferred to the assay plate(s). 10 μL of Assay Buffer was added, followed by 15 μL of Enzyme MASP-2 (CCP1-CCP2-SP) in Assay Buffer. 15 μL of Substrate in Assay Buffer was then added and the mixture was mixed to start the reaction. After 20 min at room temperature, 15 μL of a stop solution (0.1 M acetic acid) was added, the sample was mixed, and the plates were read on a SpectraMax i3× Microplate Reader with the data exported as an Excel file. Each assay plate included a “no inhibitor” (DMSO only) control, a “no enzyme” control, and a reference inhibitor control. % Activity values=100*(average test comp. fluorescence−average “no enzyme” fluorescence)/(average “DMSO only” fluorescence−average “no enzyme” fluorescence). IC50 and Ki replicate values were very reproducible, with values well within +2-fold.
# human a-thrombin = target: T2, human a-thrombin (Homo sapiens, UniProt P00734); experiment: Enzymatic assay for thrombin (fluorogenic peptide substrate Boc-VPR-AMC); format: biochemical; conditions: room temperature, 20 mM Hepes pH 7.4, 20 min
# T2 construct: enzyme (human a-thrombin (BioPharm® Lab.)); purchased BioPharm Lab
# Procedure: The thrombin assay utilizes a fluorogenic peptide substrate (Boc-VPR-AMC (R&D Systems) and was run at room temperature in an assay buffer containing 20 mM Hepes, pH 7.4, 140 mM NaCl and 0.1% Tween 20. Assay parameters were adjusted such that the assay was linear with respect to time, enzyme, and substrate concentrations. Under these optimized assays conditions, IC50 values were equivalent to Ki values, except in a few cases of “tight binding” inhibitors. Cases of “tight binding” or possible “slow binding” inhibitors were handled by the methods described in Copeland R.A. (2013) Evaluation of Enzyme Inhibitors in Drug Discovery. 2nd Ed. John Wiley and Sons, Inc., Chapters 5-7.
# The thrombin assay protocol was carried out as follows. Test compounds were serially diluted in DMSO and then 100 nL of each dilution was transferred to the assay plate(s). 10 μL of Assay Buffer was added, followed by 15 μL of enzyme (human a-thrombin (BioPharm® Lab.)) in assay buffer. 15 μL of substrate in assay buffer was then added and the sample mixed to start the reaction. After 20 min at room temperature, 15 μL of a stop solution (0.1 M acetic acid) was added, the sample was mixed, and the plates were read on a SpectraMax® i3× Microplate Reader with the data exported as Excel files. Each assay plate included a “no inhibitor” (DMSO only) control, a “no enzyme” control, and a reference inhibitor control. % Activity values=100*(ave. test comp. fluorescence−ave. “no enz” fluorescence)/(ave. “DMSO only” fluorescence−ave. “no enz” fluorescence). IC50 and Ki values were very reproducible, with values falling well within +2-fold.
pKi (MASP-2 (CCP1-CCP2-SP)),pKi (human a-thrombin),Compound
> 6.30,> 6.30,"Cc1cc(Cl)cc(CNc2cnc3n(c2=O)[C@H](C(=O)NCc2ccc(N)nc2C)CC3)c1 [Compound 55, (S)-N-((6-amino-2-methylpyridin-3-yl)methyl)-3-((3-chloro-5-methylbenzyl)amino)-4-oxo-4,6,7,8-tetrahydropyrrolo[1,2-a]pyrimidine-6-carboxamide]"
> 6.30,> 6.30,C#Cc1cccc(CNc2cnc3n(c2=O)[C@H](C(=O)N[C@@H]2CCc4nc(N)ccc42)CC3)c1 [Compound 98]
> 6.30,5.60 to 6.30,"COc1c(C)cccc1CNc1cnc2n(c1=O)[C@H](C(=O)NCc1ccc(N)nc1C)CC2 [Compound 10, (S)—N-((6-amino-2-methylpyridin-3-yl)methyl)-3-((2-methoxy-3-methylbenzyl)amino)-4-oxo-4,6,7,8-tetrahydropyrrolo[1,2-a]pyrimidine-6-carboxamide, trifluoroacetate]"
> 6.30,< 4.60,"Cc1cc(C)cc(CNc2cnc3n(c2=O)[C@H](C(=O)NCc2cc4cnc(C)cc4[nH]2)CC3)c1 [Compound 7, (S)-3-((3,5-dimethylbenzyl)amino)-N-((6-methyl-1H-pyrrolo[3,2-c]pyridin-2-yl)methyl)-4-oxo-4,6,7,8-tetrahydropyrrolo[1,2-a]pyrimidine-6-carboxamide, trifluoroacetate]"
> 6.30,> 6.30,"COc1cc(C)cc(CNc2cnc3n(c2=O)[C@H](C(=O)NCc2ccc(N)nc2C)CC3)c1 [Compound 2, (S)—N-((6-amino-2-methylpyridin-3-yl)methyl)-3-((3-methoxy-5-methylbenzyl)amino)-4-oxo-4,6,7,8-tetrahydropyrrolo[1,2-a]pyrimidine-6-carboxamide]"
> 6.30,5.60 to 6.30,"Cc1nc(N)ccc1CNC(=O)[C@@H]1CCc2ncc(NCc3cccc(C(F)(F)F)c3F)c(=O)n21 [Compound 42, (S)-N-((6-amino-2-methylpyridin-3-yl)methyl)-3-((2-fluoro-3-(trifluoromethyl)benzyl)amino)-4-oxo-4,6,7,8-tetrahydro-pyrrolo[1,2-a]pyrimidine-6-carboxamide, di-trifluoroacetate]"
> 6.30,5.60 to 6.30,"COc1cc(CNc2cnc3n(c2=O)[C@H](C(=O)NCc2ccc(N)nc2C)CC3)ccc1C [Compound 45, (S)-N-((6-amino-2-methylpyridin-3-yl)methyl)-3-((3-methoxy-4-methylbenzyl)amino)-4-oxo-4,6,7,8-tetrahydropyrrolo[1,2-a]pyrimidine-6-carboxamide, trifluoroacetate]"
> 6.30,5.60 to 6.30,"Cc1cc(C#N)cc(CNc2cnc3n(c2=O)[C@H](C(=O)NCc2ccc(N)nc2C)CC3)c1 [Compound 8, (S)—N-((6-amino-2-methylpyridin-3-yl)methyl)-3-((3-cyano-5-methylbenzyl)amino)-4-oxo-4,6,7,8-tetrahydropyrrolo[1,2-a]pyrimidine-6-carboxamide]"
> 6.30,5.60 to 6.30,"Cc1nc(N)ccc1CNC(=O)[C@@H]1CCc2ncc(NCc3cccc(N4CCOCC4)c3)c(=O)n21 [Compound 11, (S)-N-((6-amino-2-methylpyridin-3-yl)methyl)-3-((3-morpholinobenzyl)amino)-4-oxo-4,6,7,8-tetrahydropyrrolo[1,2-a]pyrimidine-6-carboxamide, hydrochloride]"
> 6.30,5.60 to 6.30,"Cc1cccc(C(C)Nc2cnc3n(c2=O)[C@H](C(=O)NCc2cc4c(s2)CNC4)CC3)c1 (single isomer, unassigned) [Compound 69, di-trifluoroacetate]"
> 6.30,5.00 to 5.60,"Cc1cc(C)cc(CNc2cnc3n(c2=O)[C@H](C(=O)NCc2cc4c(s2)CNC4)CC3)c1 [Compound 21, (S)—N-((5,6-dihydro-4H-thieno[2,3-c]pyrrol-2-yl)methyl)-3-((3,5-dimethylbenzyl)amino)-4-oxo-4,6,7,8-tetrahydropyrrolo[1,2-a]pyrimidine-6-carboxamide, trifluoroacetate]"
> 6.30,< 4.60,"COc1cc(Cl)cc(CNc2cnc3n(c2=O)[C@@H](C(=O)N[C@H](C)c2ccc(N)nc2)CC3)c1 [Compound 77, (R)-N-((R)-1-(6-aminopyridin-3-yl)ethyl)-3-((3-chloro-5-methoxybenzyl)amino)-4-oxo-4,6,7,8-tetrahydropyrrolo[1,2-a]pyrimidine-6-carboxamide]"
> 6.30,5.00 to 5.60,"COc1ccc(C)cc1CNc1cnc2n(c1=O)[C@H](C(=O)NCc1ccc(N)nc1C)CC2 [Compound 9, (S)-N-((6-amino-2-methylpyridin-3-yl)methyl)-3-((2-methoxy-5-methylbenzyl)amino)-4-oxo-4,6,7,8-tetrahydropyrrolo[1,2-a]pyrimidine-6-carboxamide, trifluoroacetate]"
5.60 to 6.30,< 4.60,"Cc1cc(C)cc(CNc2cnc3n(c2=O)[C@H](C(=O)NCc2ccnc(C)c2)CC3)c1 [Compound 19, (S)-3-((3,5-dimethylbenzyl)amino)-N-((2-methylpyridin-4-yl)methyl)-4-oxo-4,6,7,8-tetrahydropyrrolo[1,2-a]pyrimidine-6-carboxamide]"
> 6.30,< 4.60,Cc1cc(C)cc(CNc2cnc3n(c2=O)[C@@H](C(=O)NCc2ccc(N)nc2)CC3)c1 [Compound 79]
> 6.30,5.00 to 5.60,"Cc1nc(N)ccc1CNC(=O)[C@@H]1CCc2ncc(NCc3ccc(F)cc3)c(=O)n21 [Compound 52, (S)—N-((6-amino-2-methylpyridin-3-yl)methyl)-3-((4-fluorobenzyl)amino)-4-oxo-4,6,7,8-tetrahydropyrrolo[1,2-a]pyrimidine-6-carboxamide]"
> 6.30,5.00 to 5.60,Cc1nc(N)ccc1CNC(=O)[C@@H]1CCc2ncc(NCc3ccccc3)c(=O)n21 [Compound 59]
> 6.30,5.60 to 6.30,"Cc1nc(N)ccc1CNC(=O)[C@@H]1CCc2ncc(NCc3cccc(OC(F)(F)F)c3F)c(=O)n21 [Compound 39, (S)-N-((6-amino-2-methylpyridin-3-yl)methyl)-3-((2-fluoro-3-(trifluoromethoxy)benzyl)amino)-4-oxo-4,6,7,8-tetrahydro-pyrrolo[1,2-a]pyrimidine-6-carboxamide, di-trifluoroacetate]"
> 6.30,5.60 to 6.30,Cc1cc(F)cc(CNc2cnc3n(c2=O)[C@H](C(=O)N[C@@H]2CCc4nc(N)ccc42)CC3)c1 [Compound 96]
> 6.30,> 6.30,"COc1cc(Cl)cc(CNc2cnc3n(c2=O)[C@H](C(=O)N[C@@H]2CCc4nc(N)ccc42)CC3)c1 [Compound 87, (S)-N-((R)-2-amino-6,7-dihydro-5H-cyclopenta[b]pyridin-5-yl)-3-((3-chloro-5-methoxybenzyl)amino)-4-oxo-4,6,7,8-tetrahydro-pyrrolo[1,2-a]pyrimidine-6-carboxamide]"
> 6.30,> 6.30,"Cc1nc(N)ccc1CNC(=O)[C@@H]1CCc2ncc(NCc3cccc(OC4CC4)c3)c(=O)n21 [Compound 37, (S)-N-((6-amino-2-methylpyridin-3-yl)methyl)-3-((3-cyclopropoxybenzyl)amino)-4-oxo-4,6,7,8-tetrahydropyrrolo[1,2-a]pyrimidine-6-carboxamide, trifluoroacetate]"
